Results as given in PubChem BioAssay AID1259408 (Genetic Toxicology Data Bank (GENE-TOX), 2018).
Activity calls are given as the source filed them. No rule for the calls is given here.

Tested on: GENE-TOX genotoxicity assays, various organisms and cells
Test: GENE-TOX mutagenicity studies
Details: for call: Assay Type: In vivo carcinogenicity studies
Excerpt: GENE-TOX provides genetic toxicology (mutagenicity) test data from expert peer review of open scientific literature for more than 3,000 chemicals from the United States Environmental Protection Agency (EPA). GENE-TOX was established to select assay systems for evaluation, review data in the scientific literature, and recommend proper testing protocols and evaluation procedures for these systems.
GENE-TOX covers the years 1991 - 1998. It is no longer updated.
This is an archive assay for GENE-TOX mutagenicity studies.

[1] = Species/Cell Type: Drosophila melanogaster, Assay Type: Sex-linked recessive lethal gene mutation, Assay Code: SRL+, Evaluation Type: Evaluation A (Pre-1980)
[2] = Species/Cell Type: Fischer rat embryo (RLV/1706) cells, Assay Type: Cell transformation, viral enhanced, Assay Code: CTR+, Evaluation Type: Evaluation A (Pre-1980)
[3] = Species/Cell Type: Nonhuman, Assay Code: CCG-L, Evaluation Type: Evaluation A (Pre-1980)
[4] = Species/Cell Type: Rodents, Sex: Male, Assay Type: Dominant lethal test, Assay Code: DLT-, Evaluation Type: Evaluation A (Pre-1980)
[5] = Species/Cell Type: Nonhuman, Assay Type: Sister-chromatid exchange (SCE) in vivo, Assay Code: SC3T, Evaluation Type: Evaluation B (Post-1980)
[6] = Species/Cell Type: Syrian hamster embryo (SA7/SHE) cells, Assay Type: Cell transformation, viral enhanced, Assay Code: CT7+, Evaluation Type: Evaluation A (Pre-1980)
[7] = Species/Cell Type: Salmonella typhimurium (one or more of the five standard strains: TA98, TA100, TA1535, TA1537, and TA1538), Assay Type: Histidine reverse gene mutation, Ames assay, Assay Code: SALT, Evaluation Type: Evaluation A (Pre-1980)
[8] = Species/Cell Type: Bacillus subtilis (H17 vs M45), Assay Type: Rec-assay, spot test, DNA effects (bacterial DNA repair), Assay Code: REW-, Evaluation Type: Evaluation A (Pre-1980)
[9] = Species/Cell Type: Nonhuman, Assay Type: Sister-chromatid exchange (SCE) in vitro, Assay Code: SC2-, Evaluation Type: Evaluation B (Post-1980)
[10] = Species/Cell Type: Human, Sex: Male, Assay Type: Sperm morphology, Assay Code: SPH+, Evaluation Type: Evaluation A (Pre-1980)

Q: How did the mutagenic call [1] turn out when CCN(CC)CCNc1ccc(CO)c2sc3ccccc3c(=O)c12 was run?
A: active; positive

Q: What about the mutagenic call (Species/Cell Type: Drosophila melanogaster, Assay Type: Sex-linked recessive lethal gene mutation, Assay Code: SRLT, Evaluation Type: Evaluation A (Pre-1980)) of the same compound?
A: no conclusion

Q: And the mutagenic call (Species/Cell Type: Drosophila melanogaster, Sex: Male, Assay Type: Heritable translocation test, chromosome aberrations, Assay Code: DHT-, Evaluation Type: Evaluation A (Pre-1980))?
A: inactive; negative

Q: And the mutagenic call [2]?
A: active; positive

Q: And the mutagenic call (Species/Cell Type: Glycine max (soybean), Assay Type: Gene mutation, Assay Code: GLM-, Evaluation Type: Evaluation A (Pre-1980))?
A: inactive; negative

Q: What about the mutagenic call (Species/Cell Type: Mammalian polychromatic erythrocytes, Assay Type: Micronucleus test, chromosome aberrations, Assay Code: MNT+, Evaluation Type: Evaluation A (Pre-1980)) of the same compound?
A: active; positive

Q: What about the mutagenic call (Species/Cell Type: Mouse (C3H/10T1/2) cells, Assay Type: Cell transformation, Assay Code: CTH+, Evaluation Type: Evaluation A (Pre-1980)) of the same compound?
A: active; positive

Q: What about the mutagenic call (Species/Cell Type: Mouse germ cells, Sex: Male, Assay Type: Unscheduled DNA synthesis (UDS) in vivo, DNA effects, Assay Code: UDT+, Evaluation Type: Evaluation A (Pre-1980)) of the same compound?
A: active; positive

Q: What about the mutagenic call (Species/Cell Type: Mouse lymphoma (L5178Y) cells, Assay Type: Forward gene mutation at the thymidine kinase (TK) locus, chromosome aberrations, Assay Code: L51+, Evaluation Type: Evaluation A (Pre-1980)) of the same compound?
A: active; positive

Q: What about the mutagenic call (Species/Cell Type: Mouse, Sex: Female, Assay Type: Spot test, gene mutation, Assay Code: MSTT, Evaluation Type: Evaluation A (Pre-1980)) of the same compound?
A: no conclusion

Q: What about the mutagenic call (Species/Cell Type: Mouse, Sex: Male, Assay Type: Specific locus test, gene mutation, Assay Code: SLT-, Evaluation Type: Evaluation A (Pre-1980)) of the same compound?
A: inactive; negative

Q: What about the mutagenic call (Species/Cell Type: Mouse, Sex: Male, Assay Type: Sperm morphology, Assay Code: SPI+, Evaluation Type: Evaluation A (Pre-1980)) of the same compound?
A: active; positive

Q: What about the mutagenic call (Species/Cell Type: Neurospora crassa, Assay Type: Aneuploidy, chromosome aberrations, Assay Code: NEN-, Evaluation Type: Evaluation A (Pre-1980)) of the same compound?
A: inactive; negative

Q: And the mutagenic call (Species/Cell Type: Neurospora crassa, Assay Type: Forward gene mutation, Assay Code: NEF+, Evaluation Type: Evaluation A (Pre-1980))?
A: active; positive

Q: And the mutagenic call (Species/Cell Type: Nonhuman bone marrow, Assay Type: Chromosome aberrations, in vivo, Assay Code: CY#T, Evaluation Type: Evaluation A (Pre-1980))?
A: no conclusion

Q: What about the mutagenic call (Species/Cell Type: Nonhuman, Assay Type: Chromosome aberrations in vitro, Assay Code: CY&T, Evaluation Type: Evaluation A (Pre-1980)) of the same compound?
A: no conclusion

Q: What about the call [3] of the same compound?
A: inactive; negative

Q: And the mutagenic call (Species/Cell Type: Nonhuman, Assay Type: Sister-chromatid exchange (SCE) in vitro, Assay Code: SC2+D, Dose Response: With dose response, Evaluation Type: Evaluation A (Pre-1980))?
A: active; positive

Q: And the mutagenic call (Species/Cell Type: Nonhuman, Assay Type: Sister-chromatid exchange (SCE) in vivo, Assay Code: SC3+D, Dose Response: With dose response, Evaluation Type: Evaluation B (Post-1980))?
A: active; positive

Q: And the mutagenic call (Species/Cell Type: Rodents, Sex: Male, Assay Type: Dominant lethal test, Assay Code: DLT+, Evaluation Type: Evaluation A (Pre-1980))?
A: active; positive

Q: What about the mutagenic call [4] of the same compound?
A: inactive; negative

Q: And the mutagenic call (Species/Cell Type: Saccharomyces cerevisiae, Assay Type: Mitotic recombination or gene conversion, Assay Code: YEC+, Evaluation Type: Evaluation A (Pre-1980))?
A: active; positive

Q: And the mutagenic call (Species/Cell Type: Saccharomyces cerevisiae, Assay Type: Mitotic recombination or gene conversion, Assay Code: YEH+, Evaluation Type: Evaluation A (Pre-1980))?
A: active; positive

Q: And the mutagenic call (Species/Cell Type: Saccharomyces cerevisiae, Assay Type: Reverse gene mutation, Assay Code: YER+, Evaluation Type: Evaluation A (Pre-1980))?
A: active; positive

Q: What about the mutagenic call (Species/Cell Type: Salmonella typhimurium (one or more of the five standard strains: TA98, TA100, TA1535, TA1537, and TA1538), Assay Type: Histidine reverse gene mutation, Ames assay, Assay Code: SAL+, Evaluation Type: Evaluation A (Pre-1980)) of the same compound?
A: active; positive

Q: And the mutagenic call (Species/Cell Type: Salmonella typhimurium, Assay Type: Forward and reverse gene mutation, body fluid assay, Assay Code: BFU+, Evaluation Type: Evaluation A (Pre-1980))?
A: active; positive

Q: And the mutagenic call (Species/Cell Type: Salmonella typhimurium, Assay Type: Forward and reverse gene mutation, host-mediated assay, Assay Code: HMA+, Evaluation Type: Evaluation A (Pre-1980))?
A: active; positive

Q: And the mutagenic call (Species/Cell Type: Schizosaccharomyces pombe, Assay Type: Forward gene mutation, Assay Code: YEY+, Evaluation Type: Evaluation A (Pre-1980))?
A: active; positive

Q: What about the mutagenic call (Species/Cell Type: Syrian hamster embryo (SHE) cells, Assay Type: Cell transformation, clonal assay, Assay Code: CTC+, Evaluation Type: Evaluation A (Pre-1980)) of the same compound?
A: active; positive

Q: How did the mutagenic call [5] turn out when COCCOc1cnc(NS(=O)(=O)c2ccccc2)nc1 was run?
A: no conclusion

Q: How did the mutagenic call [6] turn out when O=Cc1ccc(C(=O)O)cc1 was run?
A: active; positive

Q: For CCN(CC)CCNc1ccc(C(=O)O)c2sc3ccccc3c(=O)c12, which mutagenic call [2] is on record?
A: active; positive

Q: ClCC1OC1CCl (stereo unspecified) was tested. Which mutagenic call [1] did it give?
A: active; positive

Q: Which mutagenic call (Species/Cell Type: Human diploid fibroblasts, Assay Type: Unscheduled DNA synthesis (UDS) in vitro, DNA effects, Assay Code: UDH-, Evaluation Type: Evaluation A (Pre-1980)) does the source give for CC(=O)Nc1ccc(-c2ccccc2)cc1 here?
A: inactive; negative

Q: NC(=O)N(CC(=O)O)N=O was tested. Which mutagenic call [7] did it give?
A: no conclusion

Q: For Nc1cccc2c1-c1ccccc1C2, which mutagenic call (Species/Cell Type: Fischer rat embryo (RLV/1706) cells, Assay Type: Cell transformation, viral enhanced, Assay Code: CTR-, Evaluation Type: Evaluation A (Pre-1980)) is on record?
A: inactive; negative

Q: What about the mutagenic call (Species/Cell Type: Mouse embryo (AKR/ME) cells, Assay Type: Cell transformation, Assay Code: CTK-, Evaluation Type: Evaluation A (Pre-1980)) of the same compound?
A: inactive; negative

Q: How did the mutagenic call [8] turn out when [Cl][Pd][Cl] was run?
A: inactive; negative

Q: For [O]=[Zr], which mutagenic call [9] is on record?
A: inactive; negative

Q: How did the mutagenic call (Species/Cell Type: Mammalian polychromatic erythrocytes, Assay Type: Micronucleus test, chromosome aberrations, Assay Code: MNT-, Evaluation Type: Evaluation B (Post-1980)) turn out when CCCC(=O)C1c2cccc(O)c2C(=O)c2c(O)cccc21 was run?
A: inactive; negative

Q: How did the mutagenic call [6] turn out when c1ccc2c(c1)Nc1ccccc1S2 was run?
A: active; positive

Q: With CCCCc1cc2c(c3ccc4ccccc4c13)CCC2=O as the compound, how does the mutagenic call [7] read?
A: no conclusion

Q: What does the source list for Cc1c2ccccc2c(C)c2c1c(O)c(O)c1ccccc12?
A: mutagenic call (Species/Cell Type: Chinese hamster lung (V79) cells, Assay Type: Forward gene mutation at the HPRT or ouabain locus, Assay Code: V79-*, Activation: With metabolic activation, Evaluation Type: Evaluation A (Pre-1980)): inactive; negative; call (Species/Cell Type: Nonhuman, Assay Code: CCGT, Evaluation Type: Evaluation A (Pre-1980)): no conclusion

Q: Which results are given for CC1CO1 (stereo unspecified)?
A: mutagenic call (Species/Cell Type: Chinese hamster ovary (CHO) cells, Assay Type: Forward gene mutation at the HPRT locus, Assay Code: CHO+, Evaluation Type: Evaluation B (Post-1980)): active; positive; mutagenic call [1]: active; positive; mutagenic call (Species/Cell Type: Neurospora crassa, Assay Type: Reverse gene mutation, Assay Code: NER+, Evaluation Type: Evaluation A (Pre-1980)): active; positive; call (Species/Cell Type: Nonhuman, Assay Code: CCG+, Evaluation Type: Evaluation A (Pre-1980)): active; positive; mutagenic call [5]: no conclusion; mutagenic call [4]: inactive; negative; mutagenic call (Species/Cell Type: Schizosaccharomyces pombe, Assay Type: Reverse gene mutation, Assay Code: YEZ+, Evaluation Type: Evaluation A (Pre-1980)): active; positive; mutagenic call [6]: active; positive

Q: Which mutagenic call (Species/Cell Type: Human lymphocytes, Assay Type: Sister-chromatid exchange (SCE) in vivo, Assay Code: SCY+, Evaluation Type: Evaluation B (Post-1980)) does the source give for C[C@]12C=CC(=O)C=C1CC[C@@H]1[C@@H]2[C@@H](O)C[C@@]2(C)[C@H]1CC[C@]2(O)C(=O)CO here?
A: active; positive

Q: And the mutagenic call [10]?
A: active; positive

Q: For CCN(CCCCCCN(CC)C(=O)C(Cl)Cl)C(=O)C(Cl)Cl, which mutagenic call [10] is on record?
A: active; positive

Q: How did the mutagenic call (Species/Cell Type: Nonhuman, Assay Type: Sister-chromatid exchange (SCE) in vitro, Assay Code: SC2+D*, Activation: With metabolic activation, Dose Response: With dose response, Evaluation Type: Evaluation B (Post-1980)) turn out when [2H]C1([2H])CNP(=O)(N(CCCl)CCCl)OC1 (stereo unspecified) was run?
A: active; positive

Q: Which results are given for [Cl][Sn][Cl]?
A: mutagenic call [8]: inactive; negative; mutagenic call (Species/Cell Type: Escherichia coli WP2 UVRA, Assay Type: Tryptophan reverse gene mutation, Assay Code: WPU-*, Activation: With metabolic activation, Evaluation Type: Evaluation A (Pre-1980)): inactive; negative; call [3]: inactive; negative; mutagenic call [9]: inactive; negative

Q: With CCN(CC)Cc1cc(Br)ccc1OCC(=O)N/N=C\c1ccccc1 as the compound, how does the mutagenic call (Species/Cell Type: Saccharomyces cerevisiae, Assay Type: Reverse gene mutation, Assay Code: YERT, Evaluation Type: Evaluation A (Pre-1980)) read?
A: no conclusion
